Values joined by “and” are separate entries in the source; they are usually repeats but may differ in a detail not shown here. Identical values can stand only once.

These results are taken from paper PMC12081876, “Identification of PTGR2 inhibitors as a new therapeutic strategy for diabetes and obesity” (EMBO Molecular Medicine, 2025).

In assay [1] the test system is differentiated 3T3-L1 adipocytes. The assay is described as follows: Insulin-stimulated glucose uptake assay by (3H)2-deoxyglucose. The assay is classed as cell-based, mouse. Set-up: insulin-stimulated glucose uptake, Fig 1J replicates / Figure 5E raw value, insulin-stimulated glucose uptake (replicates): unit not given here. Here is the method:
(§1) The cell lines, which were tested for mycoplasma contamination and authenticated, were purchased from the Bioresource Collection and Research Center, Taiwan. All cells were cultured at 37 °C, 5% CO2 in a humidified incubator. HEK293T cells were maintained in DMEM (cat. no. SH30003.02, HyClone) supplemented with 10% fetal bovine serum (FBS) (cat. no. 04-001-1A, Biological Industries) and 1% antibiotic/antimycotic solution (cat. no. SV30079.01, HyClone). 3T3-L1 preadipocytes were maintained at ~70% confluence in DMEM with 10% calf serum (cat. no. 16170078, Gibco) and 1% antibiotic/antimycotic solution. For adipocyte differentiation, confluent 3T3-L1 cells (defined as day 0) were exposed to an induction medium containing 10% FBS, 1 μM dexamethasone (cat. no. D4902, Sigma-Aldrich), and 1 μg/ml insulin (Humulin R, Eli Lilly) in DMEM with or without 0.5 mM isobutyl-methylxanthine (cat. no. sc-201188A, Santa Cruz Biotechnology) as indicated. After two days, the medium was replaced with DMEM containing 10% FBS and 1 μg/ml insulin and was replenished every two days until assay.
Differentiated 3T3-L1 cells were starved with serum-free DMEM containing 0.2% BSA (cat. no. A9647, Sigma-Aldrich). Cells were rinsed twice with KRH buffer (137 mM NaCl, 4.7 mM KCl, 1.85 mM CaCl2, 1.3 mM MgSO4, 50 mM HEPES and 0.1% BSA, pH 7.4), and treated with or without […] insulin in the presence of 20 μM cytochalasin B (cat. no. 11328, Cayman Chemical), a GLUT inhibitor for measuring non-specific glucose uptake, for 30 min. Cells were then incubated with 0.5 μCi [^3H]-2-deoxy-D-Glucose (cat. no. NET328A001MC, PerkinElmer) and 0.1 μM 2-deoxy-D-Glucose (2DG) (cat. no. 14325, Cayman Chemical) for 5 min. Uptake of 2DG was terminated by rapidly removing medium and washing with ice-cold PBS three times. Cells were lysed with 0.1% SDS, and the radioactivity was measured using a liquid scintillation counter. Insulin-mediated glucose uptake was calculated by subtracting insulin-treated glucose uptake with basal glucose uptake.

Assay [2] has as its system PTGR2. Also noted: method as in Toroitich et al, 2021. The note with it: ref Toroitich et al, 2021; cited from earlier work.
Assay [3] deals with PTGR2. Also noted: method as in Toroitich et al, 2021. Conditions: ref Toroitich et al, 2021; cited from earlier work. The source holds these as a separate data set.
The test system of assay [4] is PPARγ-null 3T3-L1 clones rescued with mutant mPPARγ (C313A). The assay is described as follows: Insulin-stimulated glucose uptake in PPARγ-null 3T3-L1 clones rescued with mutant mPPARγ (C313A). The note with it: Pio 1; clone #1296 rescued with mPPARγ C313A. Format: cell-based, mouse. Here is the method:
(§2) Gene editing was performed in 3T3-L1 preadipocytes using the clustered regularly interspaced short palindromic repeats (CRISPR)/Cas9 system. Two single-guide RNAs (sgRNA) (Appendix Table S5) targeting exon 6 of mouse Pparγ were designed using a web-based design tool (http://crispr.mit.edu/). These oligonucleotides were cloned into the pSurrogate reporter and pAll-Cas9.Ppuro vector obtained from Academia Sinica, Taiwan. The pSurrogate reporter contains an EGFP and an out-of-frame mCherry downstream of the sgRNA; the pAll-Cas9.Ppuro vector expresses Cas9 nuclease and sgRNA. Once a double-strand breaking at the target site in pSurrogate reporter plasmid was created by Cas9, insertions and deletions (indels) could be introduced at the cleaved site. The indels cause frameshifts and result in the expression of the mCherry gene. 3T3-L1 preadipocytes were co-transfected with pSurrogate reporter and pAll-Cas9.Ppuro vectors at 80-90% confluency using PolyJet™ transfection reagent (cat. no. SL100688, SignaGen Laboratories, USA). Two days after transfection, EGFP/mCherry double-positive cells were enriched by fluorescent-activated cell sorting. Single cells were isolated and expanded. The genomic DNA was amplified by PCR and sequenced to confirm the knockout cell lines. The primer sequences are shown in Appendix Table S5.
(§3) The mPPARγ C313A DNA sequence was amplified from pCMV6-Pparg C313A and subcloned into the pLVX-IRES-Neo vector with XhoI/NotI restriction sites. The lentiviral expression plasmids, pMD.G, and pCMVΔR8.91 (RNAi Core, Academia Sinica, Taiwan), were co-transfected into HEK293T cells. […] HSP70 was probed with an anti-HSP70 antibody (cat. no. ab45133, Abcam) as a loading control.
(§4) Differentiated 3T3-L1 cells were starved with serum-free DMEM containing 0.2% BSA (cat. no. A9647, Sigma-Aldrich). […] Uptake of 2DG was terminated by rapidly removing medium and washing with ice-cold PBS three times. Cells were lysed with 0.1% SDS, and the radioactivity was measured using a liquid scintillation counter. Insulin-mediated glucose uptake was calculated by subtracting insulin-treated glucose uptake with basal glucose uptake.

For assay [5], the system named is mPPARγ-downstream genes. The assay is described as follows: RT-qPCR of Glut4 and other mPPARγ-downstream genes in differentiated 3T3-L1 adipocytes. The assay is classed as cell-based, mouse. Here is the method:
as §1
A total of 1 × 10^5 3T3-L1 preadipocytes were seeded in 6-well plates and differentiated for six days. The 3T3-L1 adipocytes were then harvested in 1 ml of REzol C&T (cat. no. PT-KP200CT, Protech), and total RNA was extracted according to the manufacturer’s instructions with slight modifications. Briefly, 200 μl of chloroform were added to 1 ml of sample in REzol, and samples were vigorously mixed by shaking for 30 s, followed by incubation at room temperature for 5 min. Then, samples were centrifuged at 12,000 × g for 15 min at 4 °C, and 400 μl of the upper aqueous phase were transferred to a new 1.5-ml tube. An equal volume of isopropanol was added. Samples were inverted several times for mixing and then centrifuged at 12,000 × g for 10 min at 4 °C. The RNA precipitate, which formed a pellet at the bottom of the 1.5-ml tube, was washed three times with 75% ethanol and air-dried for 15 min. Pellets were dissolved in RNase-free water. The concentration of RNA was measured using Nanodrop. cDNA was synthesized using a reverse transcription kit (cat. no. K1622, Thermo Scientific) using the oligo(dT)18 primers. RT-qPCR was performed in a 10-μl reaction with 50 ng cDNA and 0.2 μM primer using SYBR green reagent (cat. no. 11203ES08, YEASEN). Mouse peptidylprolyl isomerase A (Ppia) mRNA was used as the internal control. RT-qPCR reactions were performed using ABI 7900HT FAST (Applied Biosystems) and Sequence Detection Systems (SDS v2.3, Applied Biosystems). All qPCR reactions were run in duplicates. The primers used are listed in Appendix Table S3.
(In qPCR the cycle at which signal appears reflects the starting amount.)

Assay [6] deals with PPARγ-null 3T3-L1 clones rescued with wild-type mPPARγ. The assay is described as follows: Insulin-stimulated glucose uptake in PPARγ-null 3T3-L1 clones rescued with wild-type mPPARγ. The assay is classed as cell-based, mouse. The note with it: Pio 1; clone #1296 rescued with wild-type mPPARγ. The procedure:
as §2, §3, §4

In the case of `CCCCCC(=O)/C=C/[C@H]1[C@H](O)CC(=O)[C@@H]1C/C=C\CCCC(=O)O` [15ketoPGE2], the “Figure 5E raw value, insulin-stimulated glucose uptake (replicates)” value in assay [1] (10 uM, DMSO control 2969.5-4461.5) was 5153.5 and 5837.5 and 5784.5 and 5754.5.

On to `O=C(c1ccc(S(=O)(=O)n2cncn2)cc1)N1CCC(c2ccccc2)CC1` [HHS-0701], for which, in assay [2], the PTGR2 enzymatic activity entry was “inhibit PTGR2 enzymatic activity”. The “intracellular 15-keto-PGE2 concentration” value in assay [3] is listed as “increase intracellular 15-keto-PGE2 concentration dose-dependently”.

`CCc1ccc(CCOc2ccc(CC3SC(=O)NC3=O)cc2)nc1` (stereo not shown) [Pio, pioglitazone]: in assay [1] (Pio 1), the “insulin-stimulated glucose uptake, Fig 1J replicates” value was 4.303 and 3.949 and 2.761 and 3.925. In addition, in assay [4], the “insulin-stimulated glucose uptake, Fig 1P right panel replicates” value was 4.613 and 5.328 and 5.351 and 7.42. For the same compound, in assay [5] (Pio 1μM), the “Adipoq RT-qPCR, Fig 1I replicates” value was 1.437 and 1.615 and 1.7913; the “Cepba RT-qPCR, Fig 1H replicates” value was 2.586 and 1.702 and 2.911. For the same compound, in assay [5] (Pio 1), the “Acs RT-qPCR, Fig 1G replicates” value is 6.866 and 5.338 and 5.547; the “Cd36 RT-qPCR, Fig 1F replicates” value is 2.685 and 1.765 and 2.147; the “Glut4 RT-qPCR, Fig 1C replicates” value was 6.074 and 7.473 and 6.277; the “Irs2 RT-qPCR, Fig 1D replicates” value was 3.5423 and 3.905 and 3.691. Moreover, the “Sorbs1 RT-qPCR, Fig 1E replicates” value in assay [5] (Pio 1) is 2.4621 and 3.493 and 3.111. The “insulin-stimulated glucose uptake, Fig 1P left panel replicates” value in assay [6] was 4.143 and 3.599 and 3.13 and 3.624.
